Earlier results on 1 molecule are cited in patent publication US20080003608A1, “Highly Specific Polyclonal Antibodies of Individual Core Histone and Uses Thereof” (priority 2004, published 2008).

The series has as its target T1, p300 (Homo sapiens, UniProt Q09472).
T1 construct: lane 3 curcumin (75 μM) treated cells, lane 4, curcumin (100 μM) treated cells; endogenous in cells
The note with it: reference (2).

T1 sequence (Q09472 whole entry, species assumed): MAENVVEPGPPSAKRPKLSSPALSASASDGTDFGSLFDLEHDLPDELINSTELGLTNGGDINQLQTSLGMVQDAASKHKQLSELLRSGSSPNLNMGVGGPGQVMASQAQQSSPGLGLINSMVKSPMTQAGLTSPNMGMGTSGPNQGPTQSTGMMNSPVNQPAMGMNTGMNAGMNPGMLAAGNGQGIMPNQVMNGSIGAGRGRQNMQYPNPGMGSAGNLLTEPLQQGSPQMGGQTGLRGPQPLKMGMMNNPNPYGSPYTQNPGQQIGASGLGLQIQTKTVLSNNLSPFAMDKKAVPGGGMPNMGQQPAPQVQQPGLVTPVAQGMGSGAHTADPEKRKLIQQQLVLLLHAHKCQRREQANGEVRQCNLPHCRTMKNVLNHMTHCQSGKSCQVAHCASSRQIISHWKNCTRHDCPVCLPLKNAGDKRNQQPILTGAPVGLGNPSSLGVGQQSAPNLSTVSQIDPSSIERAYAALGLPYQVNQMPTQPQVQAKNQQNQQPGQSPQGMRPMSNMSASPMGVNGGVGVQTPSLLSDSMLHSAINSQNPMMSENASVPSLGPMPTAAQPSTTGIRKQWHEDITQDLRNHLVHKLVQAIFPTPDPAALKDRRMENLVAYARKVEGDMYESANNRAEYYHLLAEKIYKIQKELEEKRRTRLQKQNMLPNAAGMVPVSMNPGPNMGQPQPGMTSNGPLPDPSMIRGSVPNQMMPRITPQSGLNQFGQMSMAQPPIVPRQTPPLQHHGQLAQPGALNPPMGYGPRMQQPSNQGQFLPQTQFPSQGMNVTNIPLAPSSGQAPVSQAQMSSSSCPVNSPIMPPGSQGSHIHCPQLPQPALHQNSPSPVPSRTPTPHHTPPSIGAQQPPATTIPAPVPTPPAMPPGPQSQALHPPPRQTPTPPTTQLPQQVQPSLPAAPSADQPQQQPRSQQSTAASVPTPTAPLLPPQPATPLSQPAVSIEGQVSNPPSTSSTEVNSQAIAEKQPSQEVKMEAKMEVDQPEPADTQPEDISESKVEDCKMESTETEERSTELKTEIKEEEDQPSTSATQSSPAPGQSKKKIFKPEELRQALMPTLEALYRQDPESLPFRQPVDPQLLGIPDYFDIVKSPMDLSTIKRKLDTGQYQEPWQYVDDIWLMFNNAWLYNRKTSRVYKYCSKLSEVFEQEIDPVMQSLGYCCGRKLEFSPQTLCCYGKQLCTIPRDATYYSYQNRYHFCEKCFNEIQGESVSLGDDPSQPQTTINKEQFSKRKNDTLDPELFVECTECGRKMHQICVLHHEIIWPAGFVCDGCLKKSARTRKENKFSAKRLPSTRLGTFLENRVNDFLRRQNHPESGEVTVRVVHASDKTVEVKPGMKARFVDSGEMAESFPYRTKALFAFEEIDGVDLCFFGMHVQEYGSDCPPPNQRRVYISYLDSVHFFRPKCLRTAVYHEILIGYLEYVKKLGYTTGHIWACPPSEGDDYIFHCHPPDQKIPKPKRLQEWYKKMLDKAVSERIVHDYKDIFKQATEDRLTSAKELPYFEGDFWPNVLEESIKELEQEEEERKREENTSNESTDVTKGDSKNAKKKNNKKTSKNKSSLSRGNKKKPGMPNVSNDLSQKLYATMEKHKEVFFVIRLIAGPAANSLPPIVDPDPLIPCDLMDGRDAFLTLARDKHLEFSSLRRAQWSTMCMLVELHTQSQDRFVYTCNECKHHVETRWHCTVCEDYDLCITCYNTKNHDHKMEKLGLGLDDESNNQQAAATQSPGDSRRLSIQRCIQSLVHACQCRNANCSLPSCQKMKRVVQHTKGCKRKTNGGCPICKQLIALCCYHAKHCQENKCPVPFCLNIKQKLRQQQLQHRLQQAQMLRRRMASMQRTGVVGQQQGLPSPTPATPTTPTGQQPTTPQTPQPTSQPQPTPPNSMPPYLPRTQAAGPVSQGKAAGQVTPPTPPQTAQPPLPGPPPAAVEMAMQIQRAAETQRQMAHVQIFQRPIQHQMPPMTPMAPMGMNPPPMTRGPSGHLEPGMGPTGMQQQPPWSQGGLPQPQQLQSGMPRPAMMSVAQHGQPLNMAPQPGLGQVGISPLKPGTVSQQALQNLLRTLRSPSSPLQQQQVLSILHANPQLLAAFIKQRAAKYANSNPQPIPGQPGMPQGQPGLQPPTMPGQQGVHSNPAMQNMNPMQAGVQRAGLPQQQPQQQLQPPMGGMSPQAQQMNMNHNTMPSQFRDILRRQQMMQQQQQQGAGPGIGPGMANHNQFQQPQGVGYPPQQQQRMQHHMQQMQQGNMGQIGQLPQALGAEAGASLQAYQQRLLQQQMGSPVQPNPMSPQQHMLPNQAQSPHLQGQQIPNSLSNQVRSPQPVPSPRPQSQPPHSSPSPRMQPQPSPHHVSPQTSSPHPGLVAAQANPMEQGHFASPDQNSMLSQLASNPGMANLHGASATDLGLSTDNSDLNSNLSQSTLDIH

For the molecule `COc1cc(/C=C/C(=O)CC(=O)/C=C/c2ccc(O)c(OC)c2)ccc1O` [Curcumin], the HAT inhibition entry is recorded as “potent p300-specific HAT inhibitor”.
